Measurements: US20100234463A1, “Method for Identifying Modulators of Gamma Secretase or Notch” (priority 2005, published 2010)
pIC50: −log10 of the molar value.

Tests used:
Notch = assay: NICD nuclear translocation high content screening assay (ArrayScan); assay type: cell-based, human
Procedure: (§1) Human embryonic kidney (HEK) 293 cells stably over-expressing β-amyloid precursor protein (βAPP695) and c-myc-tagged NotchΔE (M1727V) have been previously described (Beher, D. et al., J. Biol Chem. 276: 45394-45402, (2001)). Cells were routinely maintained in Dulbecco's modified Eagle's medium (DMEM) supplemented with 10% (v/v) fetal calf serum (FCS, Invitrogen™, Carlsbad, Calif.), 1 μg/ml puromycin (Sigma-Aldrich, St. Louis, Mo.) to maintain βAPP expression and 100 μg/ml zeocin (Life Technologies, Inc., Rockville, Md.) to select for NotchΔE expression. Cells were passaged on a weekly basis using 1:10 split ratio.
(§2) On the day of the assay, media was removed and cells washed with phosphate-buffered saline (PBS, Sigma-Aldrich, St. Louis, Mo.), followed by incubation with 1.5 ml Accutase (PAA Laboratories GmbH, Pasching, Austria) at 37° C. for 10 minutes to detach cells. DMEM supplemented with 10% (v/v) FCS was added and the cell suspension centrifuged for 5 minutes at 1120 prm. […] A further 9 ml DMEM supplemented with 0.4% (v/v) FCS was added and cells counted.
(§3) Cells were plated in poly-d-lysine coated 96-well plates (Becton Dickinson, Fullerton, Calif.) at 10,000 cells/well in DMEM supplemented with 0.4% (v/v) FCS (Invitrogen™, Carlsbad, Calif.). […] Cell conditioned media was removed for quantification of Aβ peptides and the cell monolayer fixed by incubating with 3.7% (v/v) formaldehyde (Sigma-Aldrich, St. Louis, Mo.) in PBS at room temperature for fifteen minutes.
Cells were washed with PBS (three times, five minutes each) and incubated with 0.1% Triton-X in PBS for 90 seconds at room temperature. […] After washing with PBS (three times, five minutes each), the plates were sealed and transferred to a Cellomics™ ArrayScan® 4.0 (Cellomics Inc, Pittsburgh, Pa.) for quantification of NICD translocation.
Automated image capture and quantification of NICD nuclear translocation was performed using a Cellomics™ ArrayScan® 4.0 and the Cytoplasm to Nucleus Translocation BioApplication software (Cellomics, Pittsburgh, Pa.). […]

Aβ42 [1] = details: cited from earlier work
Aβ40 = assay: Quantification of Aβ40 in cell-conditioned media by ECL; assay type: cell-based, human; details: 24 hours
Procedure: as §1, §2, §3
Aβ peptides secreted into the media were quantified using an electrochemiluminescence (ECL) assay in a 96-well plate format (Sector HTS™ analyzer, Meso Scale Discovery® a division of Meso Scale Diagnostics™, LLC (MSD™), Gaithersburg, Md.). […] Plates were washed with PBS (three times, five minutes each) and media replaced with 150 μl Read buffer S (Meso Scale Discovery®) prior to detecting Aβ40 and Aβ42 using the Sector HTS™ Analyzer. […]
Mean values for vehicle control and compound C treated cells were calculated. […] Percent control values were calculated using the following formula: […]

Aβ42 [2] = assay: Quantification of Aβ42 in cell-conditioned media by ECL; assay type: cell-based, human; details: 24 hours
Procedure: as §1
On the day of the assay, media was removed and cells washed with phosphate-buffered saline (PBS, Sigma-Aldrich, St. Louis, Mo.), followed by incubation with 1.5 ml Accutase (PAA Laboratories GmbH, Pasching, Austria) at 37° C. for 10 minutes to detach cells. […] A further 9 ml DMEM supplemented with 0.4% (v/v) FCS was added and cells counted.
Cells were plated in poly-d-lysine coated 96-well plates (Becton Dickinson, Fullerton, Calif.) at 10,000 cells/well in DMEM supplemented with 0.4% (v/v) FCS (Invitrogen™, Carlsbad, Calif.). […] Cell conditioned media was removed for quantification of Aβ peptides and the cell monolayer fixed by incubating with 3.7% (v/v) formaldehyde (Sigma-Aldrich, St. Louis, Mo.) in PBS at room temperature for fifteen minutes. […]

γ-secretase = details: reported; cited from earlier work

Structure (SMILES)	concentrations with no effect on NICD nuclear translocation (Notch; 24 hours)	pIC50 (Notch; NICD nuclear translocation, 24 hours)	reported effect on Aβ42 (Aβ42 [1])	concentrations at which Aβ40 peptide generation was inhibited (Aβ40) [µM]	pIC50 (Aβ40; HEK293 βAPP695 NotchΔE cells)	pIC50 (Aβ42 [2]; HEK293 βAPP695 NotchΔE cells)	effect on Aβ42 peptide levels (Aβ42 [2]; increasing concentrations)	potency for inhibition of Aβ40 versus Aβ42 peptides (γ-secretase)	inhibition of NICD nuclear translocation over time (Notch; 10 μM, up to twenty four hours)	effect on Aβ40 levels (Aβ40; increasing concentrations)
C[C@@H](C(=O)O)c1ccc(-c2ccccc2)c(F)c1 [Compound F]	up to 1000 μM	< 3.00	preferentially inhibit Aβ42	≥ 30	< 3.00	5.03	selectively reduced	–	–	–
CC(C)C[C@H](NC(=O)[C@H](Cc1ccccc1)C[C@@H](O)[C@H](Cc1ccccc1)NC(=O)OC(C)(C)C)C(=O)N[C@@H](Cc1ccccc1)C(N)=O [C]	–	–	–	–	–	–	–	equivalent potency	Time-dependant inhibition	declined
